Results taken from the supplement of paper PMC12463676, “Small-molecule dissolution of stress granules by redox modulation benefits ALS models” (Nature Chemical Biology, 2025).

How the values were obtained:
lipoamide = compound: NC(=O)CCCCC1CCSS1 [lipoamide]; assay: thermal stability z-score vs DMSO; higher = more thermally stabilized by treatment; details: HeLa, lipoamide concentration 100 µM
Method: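 Cellular thermal proteome profiling in HeLa cells. Cells were treated with 100 µM lipoamide for 1 h, with or without 1 mM arsenate for a further 1 h, then heated to ten temperatures (37-66.3 °C), and soluble protein was quantified by TMT mass spectrometry relative to 0.1% DMSO controls. The thermal stability score (sum of log2 fold changes minus the abundance score) was transformed to a z-score; mean of n = 3 experiments.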

potassium arsenate = compound: O=[As]([O-])(O)O.[K+] [potassium arsenate]; assay: as above; details: HeLa; arsenate concentration 1 mM
Method: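 Cellular thermal proteome profiling in HeLa cells treated with 1 mM arsenate for 1 h (DMSO pretreatment), heated to ten temperatures (37-66.3 °C). Soluble protein was quantified by TMT mass spectrometry relative to DMSO controls; the thermal stability score was transformed to a z-score; mean of n = 3 experiments.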

[1] = arsenate co-treatment: 1 mM arsenate 1 h
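Note: each temperature applied for 3 min, abundance score taken as mean log2 fold change at the two lowest temperatures, z-score obtained by mean subtraction and division by SD.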

Chain of UniProt Q9UFW8 (Q9UFW8 whole entry): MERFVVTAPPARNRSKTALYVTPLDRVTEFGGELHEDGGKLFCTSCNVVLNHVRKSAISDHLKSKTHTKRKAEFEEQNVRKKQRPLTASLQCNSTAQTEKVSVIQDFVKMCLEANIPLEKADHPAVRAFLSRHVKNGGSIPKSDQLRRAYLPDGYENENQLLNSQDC
Chain of UniProt Q8NBF2 (Q8NBF2 whole entry): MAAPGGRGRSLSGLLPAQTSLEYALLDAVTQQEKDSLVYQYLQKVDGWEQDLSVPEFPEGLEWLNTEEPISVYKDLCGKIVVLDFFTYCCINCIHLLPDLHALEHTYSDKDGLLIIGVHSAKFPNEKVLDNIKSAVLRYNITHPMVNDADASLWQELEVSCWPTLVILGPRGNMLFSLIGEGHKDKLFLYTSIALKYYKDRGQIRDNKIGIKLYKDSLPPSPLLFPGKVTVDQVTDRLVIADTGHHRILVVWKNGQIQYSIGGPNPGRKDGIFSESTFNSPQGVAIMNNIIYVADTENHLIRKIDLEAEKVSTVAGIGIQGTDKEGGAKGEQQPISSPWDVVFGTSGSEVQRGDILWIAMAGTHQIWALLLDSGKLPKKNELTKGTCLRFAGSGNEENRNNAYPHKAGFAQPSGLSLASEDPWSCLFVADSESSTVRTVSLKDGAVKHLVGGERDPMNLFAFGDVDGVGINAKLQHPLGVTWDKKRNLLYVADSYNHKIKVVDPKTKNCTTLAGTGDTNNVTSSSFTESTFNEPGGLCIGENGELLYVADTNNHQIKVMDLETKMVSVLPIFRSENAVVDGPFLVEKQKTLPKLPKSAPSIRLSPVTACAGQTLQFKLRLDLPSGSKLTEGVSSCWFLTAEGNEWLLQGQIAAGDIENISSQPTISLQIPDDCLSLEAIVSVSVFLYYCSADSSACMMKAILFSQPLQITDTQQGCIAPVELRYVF
Chain of UniProt Q13615 (Q13615 whole entry): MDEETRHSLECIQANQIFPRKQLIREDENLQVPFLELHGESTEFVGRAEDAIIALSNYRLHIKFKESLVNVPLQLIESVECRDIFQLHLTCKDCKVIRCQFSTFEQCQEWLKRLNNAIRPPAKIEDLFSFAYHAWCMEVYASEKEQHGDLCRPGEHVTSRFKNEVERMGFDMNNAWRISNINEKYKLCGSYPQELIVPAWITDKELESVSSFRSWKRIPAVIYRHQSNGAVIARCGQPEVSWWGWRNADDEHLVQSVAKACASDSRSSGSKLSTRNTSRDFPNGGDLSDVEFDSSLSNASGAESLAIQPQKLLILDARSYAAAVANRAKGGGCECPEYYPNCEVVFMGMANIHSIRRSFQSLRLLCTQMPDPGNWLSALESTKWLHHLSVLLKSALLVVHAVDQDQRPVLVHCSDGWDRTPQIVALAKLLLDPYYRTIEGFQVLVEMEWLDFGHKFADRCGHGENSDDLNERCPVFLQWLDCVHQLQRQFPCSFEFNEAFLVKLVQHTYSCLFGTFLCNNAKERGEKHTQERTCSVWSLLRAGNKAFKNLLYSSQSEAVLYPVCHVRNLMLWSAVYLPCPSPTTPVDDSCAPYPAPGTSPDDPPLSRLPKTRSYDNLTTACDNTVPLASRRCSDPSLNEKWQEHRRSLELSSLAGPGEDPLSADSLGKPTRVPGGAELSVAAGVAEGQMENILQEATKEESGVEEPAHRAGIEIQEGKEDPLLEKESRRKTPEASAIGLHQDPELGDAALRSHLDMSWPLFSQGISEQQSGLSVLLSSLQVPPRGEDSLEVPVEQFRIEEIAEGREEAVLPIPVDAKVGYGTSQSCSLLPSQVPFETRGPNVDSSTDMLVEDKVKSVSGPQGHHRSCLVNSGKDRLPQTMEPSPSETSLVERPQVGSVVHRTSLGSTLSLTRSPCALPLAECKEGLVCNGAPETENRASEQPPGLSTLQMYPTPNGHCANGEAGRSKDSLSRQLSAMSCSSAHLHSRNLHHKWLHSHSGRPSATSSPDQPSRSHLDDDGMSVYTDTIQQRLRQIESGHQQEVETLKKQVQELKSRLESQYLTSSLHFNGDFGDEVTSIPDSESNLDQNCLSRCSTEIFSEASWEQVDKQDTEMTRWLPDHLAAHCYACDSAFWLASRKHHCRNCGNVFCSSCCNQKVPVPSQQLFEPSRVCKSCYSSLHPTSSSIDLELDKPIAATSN
Chain of UniProt P57060 (P57060 whole entry): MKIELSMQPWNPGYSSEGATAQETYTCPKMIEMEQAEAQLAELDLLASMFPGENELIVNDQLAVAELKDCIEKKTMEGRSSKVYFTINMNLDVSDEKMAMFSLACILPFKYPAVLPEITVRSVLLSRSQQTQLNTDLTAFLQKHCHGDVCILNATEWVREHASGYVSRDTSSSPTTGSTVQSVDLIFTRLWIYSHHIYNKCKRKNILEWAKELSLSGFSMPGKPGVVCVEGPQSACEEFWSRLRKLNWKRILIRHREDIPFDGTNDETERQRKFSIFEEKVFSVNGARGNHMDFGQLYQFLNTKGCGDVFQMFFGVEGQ
Chain of UniProt P40692 (P40692 whole entry): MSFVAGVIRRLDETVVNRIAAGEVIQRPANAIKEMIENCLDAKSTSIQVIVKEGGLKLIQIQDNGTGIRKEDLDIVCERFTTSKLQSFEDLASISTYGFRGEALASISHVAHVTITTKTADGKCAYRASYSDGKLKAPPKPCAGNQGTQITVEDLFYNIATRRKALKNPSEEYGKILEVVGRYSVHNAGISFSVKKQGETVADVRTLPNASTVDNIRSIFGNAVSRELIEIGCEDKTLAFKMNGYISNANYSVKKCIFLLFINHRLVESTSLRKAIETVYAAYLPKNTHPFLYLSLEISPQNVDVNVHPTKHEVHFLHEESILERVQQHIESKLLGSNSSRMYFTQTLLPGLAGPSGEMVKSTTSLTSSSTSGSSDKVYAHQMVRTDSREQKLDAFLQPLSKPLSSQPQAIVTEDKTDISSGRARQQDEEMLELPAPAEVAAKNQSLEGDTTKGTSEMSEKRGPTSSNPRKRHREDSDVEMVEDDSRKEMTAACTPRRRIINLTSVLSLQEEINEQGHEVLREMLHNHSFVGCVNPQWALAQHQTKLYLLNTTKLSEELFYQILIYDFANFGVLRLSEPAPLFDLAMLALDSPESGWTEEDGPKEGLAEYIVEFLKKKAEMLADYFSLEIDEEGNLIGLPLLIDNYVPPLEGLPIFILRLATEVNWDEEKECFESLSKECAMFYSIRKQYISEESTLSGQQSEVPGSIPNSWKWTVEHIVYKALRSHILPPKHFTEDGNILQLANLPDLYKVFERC
Chain of UniProt P47985 (P47985 whole entry): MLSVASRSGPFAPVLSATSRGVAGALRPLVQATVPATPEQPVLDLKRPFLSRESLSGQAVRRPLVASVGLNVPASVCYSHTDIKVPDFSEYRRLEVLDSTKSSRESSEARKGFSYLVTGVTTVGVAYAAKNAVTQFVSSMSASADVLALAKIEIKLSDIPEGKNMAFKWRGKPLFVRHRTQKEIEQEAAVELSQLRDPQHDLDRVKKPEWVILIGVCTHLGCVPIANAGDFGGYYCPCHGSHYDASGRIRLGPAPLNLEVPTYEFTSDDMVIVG
Chain of UniProt O95782 (O95782 whole entry): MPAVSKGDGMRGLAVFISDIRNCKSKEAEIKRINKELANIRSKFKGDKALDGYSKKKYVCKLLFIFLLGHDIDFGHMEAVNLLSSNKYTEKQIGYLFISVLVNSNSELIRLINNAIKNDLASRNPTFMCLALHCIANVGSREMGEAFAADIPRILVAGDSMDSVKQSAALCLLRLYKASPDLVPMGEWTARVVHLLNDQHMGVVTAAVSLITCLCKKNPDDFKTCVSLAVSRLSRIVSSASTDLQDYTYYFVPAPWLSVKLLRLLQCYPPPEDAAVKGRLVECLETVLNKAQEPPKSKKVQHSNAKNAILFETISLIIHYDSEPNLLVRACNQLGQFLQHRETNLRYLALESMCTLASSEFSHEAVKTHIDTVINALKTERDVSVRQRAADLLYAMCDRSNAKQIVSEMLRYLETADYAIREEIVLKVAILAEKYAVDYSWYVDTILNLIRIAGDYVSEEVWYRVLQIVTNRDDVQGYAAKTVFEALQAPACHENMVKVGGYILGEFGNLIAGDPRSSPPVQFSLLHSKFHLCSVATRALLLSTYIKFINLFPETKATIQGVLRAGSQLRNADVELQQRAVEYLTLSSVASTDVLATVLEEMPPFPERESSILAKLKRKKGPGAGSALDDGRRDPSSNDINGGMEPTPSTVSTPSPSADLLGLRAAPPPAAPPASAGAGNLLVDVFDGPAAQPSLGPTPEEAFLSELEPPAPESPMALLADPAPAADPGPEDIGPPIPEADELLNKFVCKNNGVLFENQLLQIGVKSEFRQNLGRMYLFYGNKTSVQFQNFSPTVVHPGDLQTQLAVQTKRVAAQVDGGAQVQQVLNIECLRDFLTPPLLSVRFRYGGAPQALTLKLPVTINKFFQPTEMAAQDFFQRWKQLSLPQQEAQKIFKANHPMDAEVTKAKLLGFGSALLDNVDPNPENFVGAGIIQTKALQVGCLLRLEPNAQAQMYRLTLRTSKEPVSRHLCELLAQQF
Chain of UniProt Q86SQ9 (Q86SQ9 whole entry): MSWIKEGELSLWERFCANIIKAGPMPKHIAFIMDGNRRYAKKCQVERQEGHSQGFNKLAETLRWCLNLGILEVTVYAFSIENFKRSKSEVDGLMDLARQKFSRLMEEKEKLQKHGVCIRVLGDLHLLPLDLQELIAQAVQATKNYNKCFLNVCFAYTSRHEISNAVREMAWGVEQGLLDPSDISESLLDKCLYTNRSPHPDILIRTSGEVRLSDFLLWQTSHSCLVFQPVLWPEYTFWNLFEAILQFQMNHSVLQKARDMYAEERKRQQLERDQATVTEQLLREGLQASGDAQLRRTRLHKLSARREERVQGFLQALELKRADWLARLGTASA
Chain of UniProt O43181 (O43181 whole entry): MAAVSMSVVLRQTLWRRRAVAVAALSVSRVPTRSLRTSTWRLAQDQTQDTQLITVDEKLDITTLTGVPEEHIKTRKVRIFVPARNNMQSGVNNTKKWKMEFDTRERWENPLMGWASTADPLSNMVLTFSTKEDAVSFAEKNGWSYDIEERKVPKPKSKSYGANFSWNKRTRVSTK

Row | Target | thermal stability z-score (lipoamide; [1]) | thermal stability z-score (lipoamide; arsenate co-treatment: none) | thermal stability z-score (potassium arsenate)
1 | NDUFA8 (UniProt P51970) | -0.418 | -0.772 | 0.0194
2 | TTPAL (UniProt Q9BTX7) | 0.0476 | 0.0717 | 0.594
3 | PEX19 (UniProt P40855) | 1.96 | 1.51 | 1.13
4 | MLH1 (UniProt P40692) | -0.0694 | 0.372 | 1.04
5 | FBXO4 (UniProt Q9UKT5) | -0.0696 | 0.534 | -0.473
6 | HACD3 (UniProt Q9P035) | -1.92 | -0.722 | -1.47
7 | RPIA (UniProt P49247) | 0.704 | 0.8 | 0.27
8 | KYAT3 (UniProt Q6YP21) | -0.0731 | 0.185 | -0.182
9 | NDUFS2 (UniProt O75306) | -0.481 | -0.617 | -0.577
10 | OSBPL9 (UniProt Q96SU4) | -0.647 | -0.627 | 0.219
11 | NONO (UniProt Q15233) | 1.05 | 0.927 | -0.137
12 | MTMR3 (UniProt Q13615) | -0.301 | -0.594 | -1.04
13 | MRPL14 (UniProt Q6P1L8) | -0.566 | 0.0684 | 1.59
14 | YBX1 (UniProt P67809) | -0.0518 | -0.23 | -0.894
15 | RPS15 (UniProt P62841) | 0.148 | 0.282 | -0.957
16 | MRPS22 (UniProt P82650) | -0.329 | 0.295 | -0.109
17 | PPP2CA (UniProt P67775) | 0.297 | 0.0726 | -1.92
18 | NSMCE3 (UniProt Q96MG7) | -0.0975 | -0.0424 | 0.119
19 | MARCH6 (UniProt O60337) | -0.245 | -0.44 | -0.855
20 | ELAVL1 (UniProt Q15717) | -0.0114 | 0.173 | -0.765
21 | C8ORF59 (UniProt Q8N0T1) | 0.481 | 0.508 | -0.38
22 | POLG (UniProt P54098) | 0.0493 | 0.0533 | 0.0154
23 | NMNAT1 (UniProt Q9HAN9) | 1.03 | 1.15 | 1.87
24 | CPLX1 (UniProt O14810) | 0.844 | 1.45 | -0.346

Row | Target | thermal stability z-score (lipoamide; [1]) | thermal stability z-score (lipoamide; arsenate co-treatment: none) | thermal stability z-score (potassium arsenate)
25 | CGGBP1 (UniProt Q9UFW8) | -0.266 | -0.574 | -0.0749
26 | TEX30 (UniProt Q5JUR7) | 0.373 | -0.174 | -0.411
27 | CRTAP (UniProt O75718) | -3.99 | -3.27 | 0.92
28 | MRPS36 (UniProt P82909) | 0.32 | 0.0105 | 0.55
29 | CAPG (UniProt P40121) | 0.598 | 0.158 | -0.915
30 | SH3BP4 (UniProt Q9P0V3) | 0.0947 | 0.0993 | -0.0405
31 | COL4A3BP (UniProt Q9Y5P4) | -0.466 | 0.862 | 0.568
32 | AP2A1 (UniProt O95782) | -0.0653 | 0.3 | 1.19
33 | REPS1 (UniProt Q96D71) | -0.864 | -0.26 | 0.157
34 | LDLR (UniProt P01130) | 0.0821 | -0.206 | -0.0946
35 | MAPK3 (UniProt P27361) | -0.115 | -0.114 | -0.214
36 | GAR1 (UniProt Q9NY12) | -0.515 | -0.354 | -0.376
37 | RWDD2B (UniProt P57060) | 0.0612 | -0.0257 | -0.0179
38 | DHDDS (UniProt Q86SQ9) | 1.01 | 0.391 | 0.205
39 | METTL2B (UniProt Q6P1Q9) | -0.019 | -0.11 | -0.0568
40 | NDUFS4 (UniProt O43181) | 0.511 | 0.477 | 0.201
41 | R3HCC1 (UniProt Q9Y3T6) | 0.183 | 0.233 | -0.101
42 | MRPL44 (UniProt Q9H9J2) | -0.467 | -0.447 | -0.354
43 | RPL4 (UniProt P36578) | 0.486 | 0.0127 | -0.66
44 | CDK17 (UniProt Q00537) | 1.07 | 0.395 | -0.0969
45 | NHLRC2 (UniProt Q8NBF2) | -0.233 | 0.152 | -2.19
46 | XRN1 (UniProt Q8IZH2) | -0.0709 | -0.0695 | -0.357
47 | UTP3 (UniProt Q9NQZ2) | 0.145 | 0.194 | 0.203
48 | PXN (UniProt P49023) | -0.261 | -0.432 | -2

Row | Target | thermal stability z-score (lipoamide; [1]) | thermal stability z-score (lipoamide; arsenate co-treatment: none) | thermal stability z-score (potassium arsenate)
49 | TRIM44 (UniProt Q96DX7) | 0.0927 | -0.409 | 0.419
50 | CEP152 (UniProt O94986) | -0.185 | -0.184 | 0.269
51 | ANKMY2 (UniProt Q8IV38) | 0.0659 | 0.00957 | 0.0818
52 | YWHAB (UniProt P31946) | 0.364 | 0.584 | 0.281
53 | ATXN2 (UniProt Q99700) | 0.168 | 0.133 | -0.245
54 | MPRIP (UniProt Q6WCQ1) | 0.435 | 0.401 | 0.452
55 | PFDN5 (UniProt Q99471) | 1.81 | 1.27 | 1.22
56 | UQCRFS1 (UniProt P47985) | 0.00262 | 0.279 | -2.17
57 | NDUFB9 (UniProt Q9Y6M9) | 0.158 | -0.175 | -0.937
58 | MAP2K6 (UniProt P52564) | -0.0718 | 0.061 | -0.021
59 | MAX (UniProt P61244) | 2.75 | 2.05 | 2.9
60 | KEAP1 (UniProt Q14145) | 2.32 | 2.11 | 4.65
61 | DDB2 (UniProt Q92466) | -0.684 | -1.2 | 0.0883
62 | PPP1R14B (UniProt Q96C90) | 0.068 | 0.535 | -0.284
63 | PUS7 (UniProt Q96PZ0) | -0.447 | 0.26 | 0.651
64 | NKRF (UniProt O15226) | -0.0267 | 0.00359 | -0.311
65 | WWC1 (UniProt Q8IX03) | -0.0147 | -0.0692 | -0.0726
66 | B3GALNT2 (UniProt Q8NCR0) | -0.788 | -0.394 | -1.27
67 | PLBD2 (UniProt Q8NHP8) | -0.0663 | 0.0581 | 0.464
68 | SPAG9 (UniProt O60271) | 0.012 | -0.0736 | 0.732
69 | APAF1 (UniProt O14727) | -0.167 | -0.0627 | -0.00853
70 | SHOC2 (UniProt Q9UQ13) | 0.22 | -0.229 | -0.00952
71 | NAPG (UniProt Q99747) | -0.212 | -0.012 | 0.0503
